According to patent publication US20100004248A1, “Use of a Nitric Oxide Synthase Modulator for the Treatment of Cardiac Indications” (priority 2005, published 2010):

Tests used:
Format in all cases: in vivo, mouse
[1] = test system: C57/BL6 WT mice subjected to TAC pressure overload; test: Body weight and heart weight in mice subjected to transverse aortic constriction (TAC); conditions: TAC 3 weeks, oral co-treatment 1 mg/g food, mean ± sem
Description: Male NOS3 null mice (NOS3^−/−) and C57/BL6 WT controls (8-11 weeks, Jackson Labs, Bar Harbor, Me., USA) were used. Pressure overload was produced by transverse aorta constriction (TAC). Briefly, The aortic arch was isolated by entering the extrapleural space between the second and third rib, and afterwards the transverse aorta was isolated between the right and left carotid arteries. A 7-0 prolene suture ligature was tied around the transverse aorta against a 27-gauge needle to produce a 65-70% constriction after the removal of the needle. After closing the chest, animals were extubated, and a subcutaneous injection of morphine sulphate 0.2 mg, was administered before they returned to their cages. Animal's ventilatory and circulatory status was checked every 30 minutes during the first 2 hours. Sham-operated mice underwent the same operation except for aortic constriction. […] Animals were randomized to receive placebo or BH4 (120 mg/kg/d) for the next 5 weeks. At the end of the study, i.e. at 9 weeks, animal were sacrificed to receive tissue or underwent in vivo PV-loop analysis. […] Control mice were subject to sham operations, and animals were studied 3-9 weeks following surgery. […]

reactive oxygen species = test: Reactive oxygen species generation in TAC myocardium (luminol, lucigenin, DHE, DCF); conditions: WT mice, TAC 3 weeks, oral co-treatment
Experimental: Reactive oxygen species generation was examined by several independent methods. Superoxide production in left ventricular tissue homogenates was determined by luminol-enhanced chemiluminescence (EMD Biosciences). Flash frozen myocardium was homogenized in iced PBS buffer, centrifuged, and the precipitate re-suspended in assay buffer to a final concentration of 100 μM luminol following manufacturer's instructions. Phorbol-12-myristate-13-acetate or other oxidase stimulators were not used in the assay. Data were normalized by sample weight. In addition, fresh frozen left ventricular myocardium (8 μm slices) was incubated for 1 hour at 37° C. with florescent dyes 2′,7′-dichlorodihydro-fluorescein diacetate (DCF; Molecular Probes; 4 μM) (Invitrogen Corp.) reflecting hydrogen peroxide formation (DCF staining localizes principally to mitochondria within myocytes), dihydroethidium (DHE; Molecular Probes; 2 μM) which assesses O2^− formation (typically nuclear localization), and nitrotyrosine formation (polyclonal nitrotyrosine Ab, 1:100; Upstate), which can reflect formation of ONOO^−. Imaging was performed on a Zeiss inverted epifluorescence microscope attached to an argon-krypton laser confocal scanning microscope (UltraVIEW, Perkin Elmer Life Sciences, Inc.). […] Nitrotyrosine was also quantitatively assessed by ELISA assay (Oxis International).

NOS = test: Calcium dependent NOS activity, arginine to citrulline conversion, in myocardial homogenates of TAC hearts; conditions: WT mice, TAC 3 weeks, oral co-treatment
Experimental: SDS-resistant NOS3 dimers and monomers were assayed using low-temperature SDS PAGE under reducing or non-reducing conditions, as described previously^7. NOS3 was immunoprecipitated as described^16 and the resulting samples added to fivefold Laemmli buffer (0.32 mol/l Tris-HCl, pH 6.8, 0.5 mol/l glycine, 10% SDS, 50% glycerol, and 0.03% bromophenol blue) in non-reducing gel (no 2-mercaptoethanol) to identify dimer dissociation due to reduced disulfide bridges. To provide fully denatured control lanes, samples were boiled for 15 minutes prior to loading. Electrophoresis was performed using Tris glycine 6% gels (Invitrogen Corp.), and gels and buffers maintained in an ice bath at 4° C. and stained (SimplyBlue, Invitrogen Corp.). Calcium dependent and independent NOS activity was determined from myocardial homogenates by [3H] L-arginine to [3H] citrulline conversion (Sigma-Aldrich) as described^16. An alternative approach involved more direct Western blot analysis without requiring initial NOS IP. Cold SDS-Page Western blot analysis was performed using a self-made […] SDS-Tris gel. After overnight running on ice, the gel was transferred for 3 h to nitrocellulose membrane. […] Bound antibodies were detected with horseradish peroxidase-conjugated anti-mouse IgG and visualize with an enhanced chemiluminescence detection system.

Structure (SMILES): Nc1nc2c(c(=O)[nH]1)NC(C(O)C(O)CO)CN2 (stereo not drawn) [H4N, tetrahydroneopterin]
- Heart Weight (HW) [1]: 231.3 ± 10.7 mg
- reactive oxygen species generation (luminol chemiluminescence, DHE, DCF) (reactive oxygen species): None of these changes were observed
- Ca^2+-dependent NOS activity (NOS): unaltered
